Data set [1] addresses T1, Epac2B (Homo sapiens, UniProt Q8WZA2).
T1 construct: expressed in transfected cells; host or cells: HEK293
T1 sequence (Q8WZA2 1-867 isoform Q8WZA2-3): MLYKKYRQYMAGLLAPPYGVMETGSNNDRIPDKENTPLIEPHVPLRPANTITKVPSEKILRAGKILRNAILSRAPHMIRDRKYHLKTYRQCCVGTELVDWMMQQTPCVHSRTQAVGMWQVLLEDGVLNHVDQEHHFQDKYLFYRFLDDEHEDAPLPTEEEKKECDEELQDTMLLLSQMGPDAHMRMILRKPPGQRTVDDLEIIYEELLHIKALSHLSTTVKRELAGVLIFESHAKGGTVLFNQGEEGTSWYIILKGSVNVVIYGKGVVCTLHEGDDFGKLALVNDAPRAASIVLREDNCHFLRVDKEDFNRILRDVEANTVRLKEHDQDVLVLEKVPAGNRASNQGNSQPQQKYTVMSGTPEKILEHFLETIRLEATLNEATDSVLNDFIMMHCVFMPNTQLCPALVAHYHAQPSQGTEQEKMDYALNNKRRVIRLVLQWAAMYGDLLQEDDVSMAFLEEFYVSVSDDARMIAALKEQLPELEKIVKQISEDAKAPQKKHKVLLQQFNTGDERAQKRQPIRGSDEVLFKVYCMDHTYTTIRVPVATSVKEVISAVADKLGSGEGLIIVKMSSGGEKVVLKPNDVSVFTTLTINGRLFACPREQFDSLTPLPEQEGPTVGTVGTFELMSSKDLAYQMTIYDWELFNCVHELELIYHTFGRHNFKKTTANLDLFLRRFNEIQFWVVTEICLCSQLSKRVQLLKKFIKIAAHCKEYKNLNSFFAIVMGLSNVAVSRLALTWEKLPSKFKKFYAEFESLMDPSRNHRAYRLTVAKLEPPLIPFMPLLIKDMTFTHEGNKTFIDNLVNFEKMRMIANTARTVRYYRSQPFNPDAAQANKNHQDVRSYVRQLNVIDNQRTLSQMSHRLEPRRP
Kind of data set: Rap1-GTP in HEK293 cells transfected with Epac2B. Particulars: 20 μM, 30 min preincubation; S-220 50 μM, 10 min. In kind it is cell-based. The procedure:
FIGS. 9-13. Amounts of Rap1-GTP (n=5 in each group, mean±S.E.M) were determined in HEK293 cells transfected with Epac1 (FIGS. 9-11), Epac2A (FIG. 12) or Epac2B (FIG. 13). Cells were preincubated or not with AM-001 (FIGS. 9, 12, and 13), AM-002 (FIG. 10) or AM-003 (FIG. 11) (20 μM, 30 min) and were then treated or not with 8-CPT-AM (10 μM for Epac1 activation and 20 μM for Epac2A activation) or S-220 (50 μM for Epac2B activation) for 10 min. ESI-05 was used as positive control of Epac2A inhibition. Representative immunoblots are shown. […], *[…], ***p<0.001, ****p<0.0001, versus indicated values, one way ANOVA, Bonferroni comparison test.
Human Embryonic Kidney cells line (HEK293): HEK293 cells were maintained is in minimal essential medium with FBS (10%) and penicillin-streptomycin (1%). All media, sera, and antibiotics used in cell culture were purchased from Invitrogen.
The human Epac1/Epac2 expression vector was a gift from Dr J. L. Bos. Cells were transfected using Lipofectamine 2000 (Invitrogen) according to the manufacturer's instructions. HEK293 cells were maintained in MEM with FBS (Foetal Bovine Serum; 10%) and penicillin-streptomycin (1%). All media, sera and antibiotics used in cell culture were purchased from Invitrogen (Cergy Pontoise, France). […]

Data set [2] has as its system wild-type C57BL/6 mice. Kind of data set: chronic ISO infusion (chronic β-AR activation): cardiac function, remodelling, tolerability. An excerpt:
FIG. 17: AST and ALT activities in the serum of mice treated under the indicated conditions (left panel) (n=7 per group). Comparison of FS in animals between day 1 and day 14 in the presence or absence of AM-001 (right panel) (n=12 per group).
FIG. 18: LVW/TL ratios of mice after 14 days of treatment with vehicle or AM-001.
FIG. 20: Comparison of FS, LVIDs and LVIDd in ISO treated animals between day 1 and day 14 in the presence or absence of AM-001 (n=18-20 per group).
FIG. 21: Representative immunoblots of Epac1, GRK2, and GRK5. Statistical significance was determined by two-way ANOVA followed by Bonferroni post-test. * p<0.05, ** p<0.01, *** p<0.001, **** p<0.0001 vs indicated values. ns, not significant.
Osmotic mini-pumps (Alzet) were implanted subcutaneously in mice anaesthetized with isoflurane (1%). Pumps were filled with ISO or sterile saline and were set to deliver ISO at 60 mg/kg per day for 14 days to induce cardiac hypertrophy. AM-001 treatment (10 mg/kg/d diluted in 10% DMSO/20% Kolliphor/70% sterile saline) is given from the third day of ISO infusion. Mice were subsequently euthanized with barbiturate overdose (pentobarbital, 150 mg/kg, i.p.) and mini-pumps were weighed in order to verify complete diffusion.
Echocardiography was carried out on lightly anaesthetized (1% isoflurane in air) mice placed on a heating pad. The left ventricle dimensions were obtained during TimeMouvement mode acquisition from the parasternal short-axis view at the midventricular level of the papillary muscles using a Vevo2100 ivid7 echograph and a […] transducer (M550i13L, VisualsonicsGE Healthcare). Images were transferred and analysed off line with Vevolab software EchoPAC (GE Healthcare).
Determination of fibrosis Hearts were transversely sectioned at 10 μm thickness, fixed with 4% paraformaladehyde and stained with Sirius Red. Slides were scanned with NanoZoomer (Hamamatsu v1.2) and fibrosis was measured as positively stained area with Sirius Red and expressed as percent of total area, using ImageJ software (RSB).
Hearts were collected, fixed in 4% paraformaldehyde, dehydrated, and embedded in OCT tissue embedding compound (Tissue Tek, EMS). Longitudinal sections were performed at 10 μm in thickness and stained with hematoxylin and eosin for histological examination.
Aspartate aminotransferase (AST) and alanine aminotransferase (ALT) were measured in serum to determine the cytotoxicity, using specific kits purchased from ScienCell Research Laboratories following the manufacturer's instructions.
The inventors next sought to determine whether AM-001 could provide improvement in cardiac function and remodelling during chronic p-AR activation.

Data set [3] relates to type II PKA holoenzyme. Kind of data set: type II PKA holoenzyme activation. The following applies: 30 μM, presence and absence of 10 μM cAMP. Type of data set: biochemical.
[4] abbreviates: ISO 60 mg/kg per day 14 days, AM-001 10 mg/kg from day 3.

For the molecule `Nc1c(C(=O)Nc2ccc(F)cc2)sc2nc(-c3cccs3)cc(-c3ccccc3)c12` [AM-001, 3-amino-N-(4-fluorophenyl)-4-phenyl-6-(thiophen-2-yl)thieno[2,3-b]pyridine-2-carboxamide], the “inhibition of the increase in Rap1-GTP induced by S-220” value in data set [1] was “ineffective”. Moreover, in data set [2] (10 mg/kg i.p. day 3 to day 14), the “liver and renal histology (H & E staining)” value is on record as “did not display any apparent histological alterations”; the “plasma level of alanine aminotransferase (ALT)” value is recorded as “equivalent in each group”; the “plasma level of aspartate aminotransferase (AST)” value is reported as “equivalent in each group”. In data set [2] (setting [4]), the “LVW/TL ratio under ISO” value is “further decreased” and the “fibrosis (Sirius Red positive area, percent of total area)” value amounted to 1.1±0.5%. Moreover, in data set [2] (during ISO treatment), the “left ventricular end-diastolic internal diameter (LVIDd)” value is reported as “decrease” and the “left ventricular end-systolic internal diameter (LVIDs)” value was “decrease”. Moreover, the “ISO-induced upregulation of GRK5 expression” value in data set [2] (immunoblot, ISO treated animals) is on record as “significantly reduced”. Further, the “fractional shortening (FS) after 14 days of ISO” value in data set [2] (vs vehicle treated mice) is listed as “higher FS”. Besides, the “effect on type II PKA holoenzyme activation” value in data set [3] was “did not influence”.
